Results taken from publication PMC13566268, “Everolimus-Involving Immunosuppression Attenuates Renal Interstitial Fibrosis Through Modulation of Mammalian Target of Rapamycin-Related Signal Transduction” (International Journal of Molecular Sciences, 2026).

Experiment: Pharmacokinetic assessment of immunosuppressants (blood/plasma trough and AUC)
Type: in vivo, human
Conditions: Non-EVR group, plasma, mean ± SD
Procedure: Sampling was performed at both 1-month and 1-year posttransplantation. The area under the blood (plasma) concentration–time curve (AUC) was then calculated from these serial measurements.

Structure (SMILES): COc1c(C)c2c(c(O)c1C/C=C(\C)CCC(=O)O)C(=O)OC2 [MPA, mycophenolic acid]
- MPA AUC0–12 (at 1-month posttransplantation): 53500 ± 21000 ng·h/mL
- MPA AUC0–12 (at 1-year posttransplantation): 51500 ± 20000 ng·h/mL
